Laboratory results as given in patent publication US7915270B2, “Oxazole ketones as modulators of fatty acid amide hydrolase” (The Scripps Research Institute, priority 2006, dated 2011).
Read-outs that look alike come from different tables or passages of the source.

Columns and labels:
Rat FAAH = target: T1, Rat FAAH (Rattus norvegicus, UniProt P97612); assay: Assay Method 2: FAAH assay, 3H-anandamide hydrolysis in cell homogenate (SK-N-MC cells transfected with rat FAAH); assay type: biochemical; details: 3H-AEA 80 nM, rt 1 h, pH 9
T1 construct: expressed in transfected cells
T1 sequence (P97612 1-579): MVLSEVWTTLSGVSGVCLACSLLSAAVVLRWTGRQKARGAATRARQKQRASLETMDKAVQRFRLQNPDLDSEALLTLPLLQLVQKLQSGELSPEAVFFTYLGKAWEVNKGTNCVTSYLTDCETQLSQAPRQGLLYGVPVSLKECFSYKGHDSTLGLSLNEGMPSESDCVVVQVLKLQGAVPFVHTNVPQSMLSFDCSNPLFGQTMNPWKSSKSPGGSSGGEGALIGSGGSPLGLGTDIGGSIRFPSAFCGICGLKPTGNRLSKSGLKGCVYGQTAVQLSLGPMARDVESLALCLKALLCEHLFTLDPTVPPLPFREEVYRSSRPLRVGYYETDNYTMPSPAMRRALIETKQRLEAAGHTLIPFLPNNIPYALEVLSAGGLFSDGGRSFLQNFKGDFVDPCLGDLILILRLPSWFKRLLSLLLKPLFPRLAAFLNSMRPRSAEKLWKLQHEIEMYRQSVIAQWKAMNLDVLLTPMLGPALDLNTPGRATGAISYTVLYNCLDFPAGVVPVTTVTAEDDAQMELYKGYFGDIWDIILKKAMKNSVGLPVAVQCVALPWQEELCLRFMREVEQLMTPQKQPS

[1] = Pharmacokinetic testing, intravenous bolus in rats; assay type: in vivo; details: rat, plasma, 2 mg/kg, male Sprague Dawley rats, 1 mg/mL in 2 mL/kg
Protocol: For each test compound, two male Sprague Dawley Rats (Charles River Laboratories; approx. 300 g body weight) were used. Animals were individually housed, provided food and water ad libitum, and were maintained on a 12 h light and dark cycle. Animals received from the vendor were surgically cannulated by the vendor with right jugular vein and left carotid artery catheters. Animals were acclimatized for at least 5 days after receipt from the vendor prior to investigations.
Animals received a bolus intravenous dose of the test compound at a dose of 1 mg/mL in a volume of 2 mL/kg via the right jugular vein catheter. The intravenous dosing solution was prepared in 55% pharmasolve, 20% cremophor, and […] physiological saline, or 100% saline adjusted to pH 8.0.
Following intravenous administration, blood was collected (sampled 0.35 mL per time point from the left carotid artery catheter) at 0.083, 0.25, 0.5, 1, 2, 4, and 6 h post-dose. Blood was collected into tubes containing EDTA and stored at 4° C. for not more than 2 h. The samples were centrifuged at 10,000 rpm in a micro-centrifuge for 5 min to obtain a plasma fraction. The plasma was stored at between −20 and −80° C. until processed for analysis. These samples were analyzed by LC-MS/MS to determine the plasma level of the compound.
Plasma level vs. time plots were created and WinNonlin (Pharsight Corp.) was used to analyze the data. A non-compartmental pharmacokinetic model was used to determine the pharmacokinetic parameters, including clearance, volume of distribution (Vd), and half-life (t1/2).

FAAH = target: T2, FAAH (Rattus norvegicus, UniProt P97612); assay: Assay Method 1A: FAAH enzyme assay, 14C-oleamide hydrolysis, solubilized liver plasma membrane extract;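 also: ki obtained by Dixon analysis, taking the x-intercept of inhibitor concentration versus reciprocal rate plots at fixed substrate level and correcting for substrate concentration relative to Km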
T2 sequence (P97612 1-579): T1 sequence (P97612 1-579)
Protocol: Linear least squares fits were used for all reaction progress curves and R^2 values were consistently >0.97. […] Ki values were determined by the Dixon Method (x-intercepts of weighted linear fits of [I] versus 1/rate plots at constant substrate concentration, which were converted to Ki values using the formula Ki=−xint/[1+[S]/Km]).

[2] = Solubility determination in water; assay type: physicochemical; details: thermodynamic from solid; in water at 5, 1 and 0.1 mg/mL; pH of resulting solutions 7-8.5
Protocol: Physical Chemical Properties
Solubility determinations were made by mixing the test compound in water at 5 mg/mL, 1 mg/mL, and 0.1 mg/mL concentrations. The pH of the resulting solutions was 7-8.5.

O=C(O)c1ccc(-c2cnc(C(=O)CCCCCCc3ccccc3)o2)nc1 [Example 38, 6-(2-(7-Phenylheptanoyl)oxazol-5-yl)nicotinic acid]
IC50 (Rat FAAH): 2 nM
Vd [1]: 1.4 L/kg
clearance [1]: 112 mL/min/kg
half-life [1]: 9 min
Ki (FAAH): 7 nM
solubility [2]: > 5000 µg/mL

O=C(O)c1cccc(-c2cnc(C(=O)CCCCCCc3ccccc3)o2)n1 [Example 37, 6-(2-(7-Phenylheptanoyl)oxazol-5-yl)picolinic acid]
IC50 (Rat FAAH): 11 nM
Vd [1]: 0.86 L/kg
clearance [1]: 7.67 mL/min/kg
half-life [1]: 74.4 min
Ki (FAAH; read-out: Assay 1A Ki, liver plasma membrane extract containing FAAH, 14C-oleamide, pH 9.0, 20-23 °C, Dixon method): 20 nM
solubility [2]: > 5000 µg/mL
